# In patent publication US6537545B1, “Use of corneal hardening agents in enzymeorthokeratology” (ISTA Pharmaceuticals, Inc., priority 1998, dated 2003):
# Tests used:
# Type in all cases: in vivo
# [1] = tested on: Dutch Belted rabbit corneas; experiment: Histopathologic examination of harvested corneas (Example 1); conditions: rabbits; eyes harvested Study Day 58
# Description: The animals were sacrificed and their eyes were harvested on Study Day 58. The animals in the study were euthanised using an intravenous injection of pentobarbital (2 mg/kg). The eyes of the animals were enucleated immediately after sacrifice using Castro-Viejo scissors. The corneas of the eyes were then removed and placed on the end of a glass tube and cut in half. These samples were then snap frozen in liquid nitrogen. […] The corneas were then sectioned, stained with hematoxylin/eosin and the slides were sent to a Board-certified Veterinary Pathologist for interpretation.
# [2] = tested on: Dutch Belted rabbit corneal epithelium; experiment: Corneal scraping, rate of re-epithelialization (Example 2); conditions: rabbits; scraping on Study Day 71 after 63 days of drops; examined 1, 2, 3 days post-scraping; vs BSS
# Description: On Study Day 71 (following 63 days of drops), corneal scrapings were performed as follows. Photographs of the uninstrumented eyes were taken after fluorescein staining. Fluorescein staining was performed as described in Example 1. The examined animals were then placed under general anesthesia using ketamine/xylazine also as described in Example 1. Two (2) drops of proparacaine were instilled into both eyes of the examined animal as an anesthetic. The animal to be examined was then placed on an examination table with one eye gently proptosed. A 10×15 mm strip of epithelium from the central cornea was denuded with a sterile #11 scalpel blade (Feather Safety Razor Co., Ltd., Japan). The examined animal was then returned to the slit lamp, topical fluorescein was applied, and the eye was photographed. The animals were examined for reepithelialization at 1, 2, and 3 days post-scraping. Photographs were taken and the rate of re-epithelialization was determined and documented.
# Dutch Belted rabbit eyes [3] = experiment: GLP safety study, slit lamp biomicroscopy and intraocular pressure (Example 3)
# Description: This study was conducted in compliance with the Good Laboratory Practices requirements of the U.S. Food and Drug Administration. Here, 27 eyes were randomly chosen to form the control group and the remaining 27 eyes formed the experimental group. All of the animals received ophthalmic examinations consisting of slit lamp biomicroscopy (as described in Experiment 2) and intraocular pressure measurements (IOP) as generally practiced in the art, before the experiment began to establish baseline conditions.
# Following baseline examinations, all rabbits received 500 IU in 20 μL of hyaluronidase into the corneal stroma bilaterally using the injection method described in Experiment 1. No examinations or treatments were performed on the animals until Study Day 8. On Study Day 8, the animals received slit lamp examinations and IOP measurements.
# Treatment with topical eyedrops began immediately after the Day 8 examinations. Each rabbit received 2 drops of test agent four times a day at 05:00, 09:00, 13:00 and 17:00. The 3% glyceraldehyde solution was prepared in 0.9% sodium chloride USP under Good Manufacturing Practices (GMP). The 0.9% sodium chloride for injection was also prepared using GMP. Each rabbit eye in the experimental group received the 3% glyceraldehyde solution while the control eyes received a 0.9% sodium chloride solution. […]
# Dutch Belted rabbit eyes [4] = experiment: GLP safety study, histopathology (Example 3); conditions: rarely noted in both glyceraldehyde and saline treated groups; Study Day 40
# Excerpt: On Study Day 40, after 32 days of drops, the animals were sacrificed and the eyes were harvested according to the methods described in Experiment 2. The eyes were fixed in half-strength Karnovsky's fixative as described in Experiment 2 and sent to a Board Certified Veterinary Pathologist for interpretation.
# [5] = tested on: eyes of non-sighted human patients; experiment: Safety of enzymatic corneaplasty with hyaluronidase and topical 3% glyceraldehyde in two non-sighted human patients (Example 4)
# Description: The two patients (Nos. 1108 and 1105) each received an intrastromal injection of 500 IU of hyaluronidase. […] Patient 1108 wore the lenses for 21 days while patient 1105 wore the lenses for 50 days.
# Patient 1108 was treated according to the protocol outline above. After the 21 day lens wearing period had expired, the patient was instructed to apply two (2) drops of the 3% glyceraldehyde solution four times per day. The application of 3% glyceraldehyde continued for thirty-six (36) days after lens wear had ceased. Following termination of the 3% glyceraldehyde treatment, the patient was examined occasionally and the final examination was administered 126 days following the cessation of glyceraldehyde treatment.
# This patient was treated as described above and wore the RGP lenses for 50 days. Unlike patient 1108, patient 1105 was treated with the 3% glyceraldehyde solution for one (1) month while the patient was wearing the RGP contact lenses. The 3% glyceraldehyde solution was applied four times per day for a total period of 43 days.
# [6] = tested on: eyes of myopic human subjects; experiment: Mild myopia study, group III: corrective lenses and 3% glyceraldehyde without hyaluronidase (Example 9); conditions: no hyaluronidase; subject 011; three month follow-up point; baseline 20/20
smiles,measurement,setting,value
O=CC(O)CO (stereo not shown) [glyceraldehyde],histopathologic differences between corneas of control and treated groups,[1],no appreciable differences
same,healing rate of scraped corneas (re-epithelialization),[2],healed at a rate equivalent to those of the control
same,overall deleterious effects in rabbits,"Dutch Belted rabbit eyes [3]; 3% glyceraldehyde solution, 32 days",no significant deleterious effects
same,"number of the 14 criteria (slit lamp findings, IOP) with statistically significant differences between control and glyceraldehyde treated groups","Dutch Belted rabbit eyes [3]; 27 rabbits, 500 IU hyaluronidase bilaterally, 3% glyceraldehyde 2 drops four times a day, 32 days vs 0.9% sodium chloride, any timepoint",None
same,"histopathology: focal increase in cellularity of corneal stroma, reduplication of Descemet's membrane, relation to treatment",Dutch Belted rabbit eyes [4],not associated with treatment with the drops
same,level of SPK after termination of lens wear while continuing 3% glyceraldehyde,[5]; patient 1105,observed to decrease
same,level of superficial punctate keratopathy (SPK) during lens wear and 3% glyceraldehyde application,"[5]; patient 1105, 500 IU hyaluronidase, RGP lenses 50 days, drops four times per day, 43 days",not observed to increase
same,appearance of corneas at follow-up,"[5]; patient 1105, 98 days post cessation of glyceraldehyde treatment",appeared normal
same,appearance of corneas under slit-lamp biomicroscopy,"[5]; patient 1105, within 48 hours of ceasing the 43 day glyceraldehyde treatment",appeared normal under slit-lamp biomicroscopy and were free of any SPK
same,effects on the stroma or the endothelial cells during glyceraldehyde treatment,"[5]; patient 1108, 500 IU hyaluronidase, lenses 21 days, then 3% glyceraldehyde 2 drops four times per day, 36 days",did not indicate any deleterious effects
same,adverse reactions after completion of treatment,"[5]; patient 1108, after the 36 day protocol up to final examination 126 days after cessation",Nor were there any adverse reactions observed
same,overall observable negative results,[5]; two non-sighted human patients,no observable negative results
same,UVA at follow-up after end of treatment,[6],20/40
